The record followed here is patent US7205382B2, “Peptides, the production and use thereof for binding immunoglobulins” (Fresenius Medical Care Affina GmbH, priority 2000, dated 2007).

Format in all cases: binding
Holding throughout (design): key: No binding of immunoglobulin for the defined peptide variant, detection negative: 0; Binding of immunoglobulin for the defined peptide variant, detection positive: +

Test [1] concerns serum albumin. Put plainly: Cellulose-immobilized 13-mer peptide variants incubated with serum albumin (negative control), anti-human IgG-AP detection. Particulars: blocking buffer without addition, 3 h room temperature. As for the experimental part: (§1) Peptides consisting of 13 amino acids were synthesized by solid phase synthesis (Houghten, 1985) on a cellulose matrix with (βA)(βA) as a spacer group.
(§2) The immobilized peptides were tested for their immunoglobulin binding capability by incubation with human IgG-Fc in a buffered solution and by incubation with human plasma.
(§3) Thus, the peptide variants immobilized on solid phases were washed with T-TBS buffer (136 mM NaCl, 1.6 mM KCl, 0.05% (v/v) Tween 20, 50 mM Tris-HCl, pH 8.0) and subsequently treated with blocking buffers (5% (w/v) saccharose, 4% (w/v) bovine serum albumin in T-TBS). Incubation of the immobilized peptides with IgG-Fc (1 μg/ml) in blocking buffer and human serum (diluted 1:10,000 in blocking buffer) was effected for 3 h at room temperature. For checking the specificity of the binding, buffered serum albumin solution (blocking buffer) without addition was included as a control. Thereafter, the peptide variants immobilized on the solid phases were washed three more times with T-TBS buffer.
(§4) After incubation with alkaline phosphatase-conjugated anti-human IgG antibody (1.2 μg/ml) in blocking buffer, detection of the immunoglobulin binding was effected by means of NBT (nitroblue tetrazolium chloride)/BCIP (5-bromo-4-chloro-3-indolyl phosphate toluidine salt) as a substrate (200 μl of parent solution (18.75 mg/ml NBT and 9.4 mg/ml BCIP in 67% (v/v) DMSO) in 10 ml developing buffer (100 mM Tris-HCl, 100 mM NaCl, 5 mM MgCl2, pH 9.5)).

Test [2] deals with immunoglobulins in human plasma. Briefly: Cellulose-immobilized 13-mer peptide variants incubated with human plasma, anti-human IgG-AP detection. The following applies: human plasma as sample, diluted 1:10,000 in blocking buffer, 3 h room temperature. How it is done: as §1, §2, §3, §4
Test [3] concerns human IgG-Fc. Briefly: Cellulose-immobilized 13-mer peptide variants incubated with human IgG-Fc, anti-human IgG-AP detection. Particulars: IgG-Fc 1 μg/ml in blocking buffer, 3 h room temperature. As for the experimental part: as §1, §2, §3, §4

Bridge positions count the residues as written; N and C are the ends. Square brackets hold non-standard residues; d marks the D form. Ends that are not written are not given here. cellulose = not defined here; βAla = NCCC(=O)O

Consider “05I: cellulose-bound 13-mer variant DCAWILGELVWCT-(βA)(βA) (disulfide 2-12 (inferred); not fully specified (N-terminus, C-terminus); printed as DCAWILGELVWCT-(βA)(βA); also: cellulose-bound)”, for which the “Result for incubation with serum albumin (immunoglobulin binding detection)” value (“Result for incubation with serum albumin” for short) in test [1] came out at 0. Moreover, in test [2], the “Result for incubation with human plasma (immunoglobulin binding detection)” value (shortened to “Result for incubation with human plasma”) was 0. Moreover, the “Result for incubation with human IgG-Fc (immunoglobulin binding detection)” value (shortened to “Result for incubation with human IgG-Fc”) in test [3] amounted to 0.

In the case of “07F: cellulose-bound 13-mer variant DCAWHLFELVWCT-(βA)(βA) (DCAWHLFELVWCT-{βAla-βAla-cellulose}; disulfide 2-12 (inferred); not fully specified (N-terminus); printed as DCAWHLFELVWCT-(βA)(βA); reading uncertain)”, in test [1], the “Result for incubation with serum albumin” value stood at 0. Also, the “Result for incubation with human plasma” value in test [2] was 0. Further, the “Result for incubation with human IgG-Fc” value in test [3] was 0.

For “09R: cellulose-bound 13-mer variant DCAWHLGERVWCT-(βA)(βA) (DCAWHLGERVWCT-{βAla-βAla-cellulose}; disulfide 2-12 (inferred); reading uncertain; also: printed as DCAWHLGERVWCT-(βA)(βA))”, the “Result for incubation with serum albumin” value in test [1] worked out at 0. Besides, in test [2], the “Result for incubation with human plasma” value is “+”. The “Result for incubation with human IgG-Fc” value in test [3] is given as “+”.

In the case of “11A: cellulose-bound 13-mer variant DCAWHLGELVACT-(βA)(βA) (DCAWHLGELVACT-{βAla-βAla-cellulose}; disulfide 2-12 (inferred); reading uncertain; also: printed as DCAWHLGELVACT-(βA)(βA))”, the “Result for incubation with serum albumin” value in test [1] turned out to be 0. Also, the “Result for incubation with human plasma” value in test [2] is 0. Besides, the “Result for incubation with human IgG-Fc” value in test [3] is 0.

“07M: cellulose-bound 13-mer variant DCAWHLMELVWCT-(βA)(βA) (DCAWHLMELVWCT-{βAla-βAla-cellulose}; disulfide 2-12 (inferred); not fully specified (N-terminus); printed as DCAWHLMELVWCT-(βA)(βA); reading uncertain)”: in test [1], the “Result for incubation with serum albumin” value is 0. Moreover, in test [2], the “Result for incubation with human plasma” value is on record as 0. The “Result for incubation with human IgG-Fc” value in test [3] is recorded as 0.

Turning to “12G: cellulose-bound 13-mer variant DCAWHLGELVWGT-(βA)(βA) (DCAWHLGELVWGT-{βAla-βAla-cellulose}; not fully specified; printed as DCAWHLGELVWGT-(βA)(βA); reading uncertain)”, in test [1], the “Result for incubation with serum albumin” value worked out at 0. Also, the “Result for incubation with human plasma” value in test [2] turned out to be 0. The “Result for incubation with human IgG-Fc” value in test [3] came to 0.

For “05G: cellulose-bound 13-mer variant DCAWGLGELVWCT-(βA)(βA) (disulfide 2-12 (inferred); not fully specified (N-terminus, C-terminus); printed as DCAWGLGELVWCT-(βA)(βA); also: cellulose-bound)”, in test [1], the “Result for incubation with serum albumin” value was 0. In test [2], the “Result for incubation with human plasma” value is 0. The “Result for incubation with human IgG-Fc” value in test [3] turned out to be 0.

With “05C: cellulose-bound 13-mer variant DCAWCLGELVWCT-(βA)(βA) (not fully specified (N-terminus, C-terminus, bridges); printed as DCAWCLGELVWCT-(βA)(βA); cysteine pairing not given here; also: cellulose-bound)”, the “Result for incubation with serum albumin” value in test [1] stood at 0. Further, the “Result for incubation with human plasma” value in test [2] is given as 0. In addition, the “Result for incubation with human IgG-Fc” value in test [3] turned out to be 0.

With “07E: cellulose-bound 13-mer variant DCAWHLEELVWCT-(βA)(βA) (DCAWHLEELVWCT-{βAla-βAla-cellulose}; disulfide 2-12 (inferred); not fully specified (N-terminus); printed as DCAWHLEELVWCT-(βA)(βA); reading uncertain)”, in test [1], the “Result for incubation with serum albumin” value is listed as 0. For the same substance, the “Result for incubation with human plasma” value in test [2] stood at 0. Besides, the “Result for incubation with human IgG-Fc” value in test [3] came to 0.

As for “05P: cellulose-bound 13-mer variant DCAWPLGELVWCT-(βA)(βA) (disulfide 2-12 (inferred); not fully specified (N-terminus, C-terminus); printed as DCAWPLGELVWCT-(βA)(βA); also: cellulose-bound)”, the “Result for incubation with serum albumin” value in test [1] stood at 0. Moreover, the “Result for incubation with human plasma” value in test [2] is reported as 0. For the same substance, the “Result for incubation with human IgG-Fc” value in test [3] worked out at 0.

In the case of “06F: cellulose-bound 13-mer variant DCAWHFGELVWCT-(βA)(βA) (DCAWHFGELVWCT[βAla][βAla]; disulfide 2-12 (inferred); not fully specified (N-terminus); printed as DCAWHFGELVWCT-(βA)(βA); also: cellulose-bound)”, the “Result for incubation with serum albumin” value in test [1] came out at 0. In addition, the “Result for incubation with human plasma” value in test [2] was determined as 0. For the same substance, the “Result for incubation with human IgG-Fc” value in test [3] worked out at 0.

Take “08M: cellulose-bound 13-mer variant DCAWHLGMLVWCT-(βA)(βA) (DCAWHLGMLVWCT-{βAla-βAla-cellulose}; disulfide 2-12 (inferred); not fully specified (N-terminus); printed as DCAWHLGMLVWCT-(βA)(βA); reading uncertain)”: in test [1], the “Result for incubation with serum albumin” value is on record as 0. The “Result for incubation with human plasma” value in test [2] is recorded as “+”. Also, in test [3], the “Result for incubation with human IgG-Fc” value is listed as “+”.

Regarding “10M: cellulose-bound 13-mer variant DCAWHLGELMWCT-(βA)(βA) (DCAWHLGELMWCT-{βAla-βAla-cellulose}; disulfide 2-12 (inferred); reading uncertain; also: printed as DCAWHLGELMWCT-(βA)(βA))”, the “Result for incubation with serum albumin” value in test [1] came to 0. For the same substance, the “Result for incubation with human plasma” value in test [2] is 0. The “Result for incubation with human IgG-Fc” value in test [3] amounted to 0.

For the substance “03F: cellulose-bound 13-mer variant DCFWHLGELVWCT-(βA)(βA) (DCFWHLGELVWCT-{βAla-βAla-cellulose}; disulfide 2-12 (inferred); reading uncertain; also: printed as DCFWHLGELVWCT-(βA)(βA))”, the “Result for incubation with serum albumin” value in test [1] is on record as 0. Further, in test [2], the “Result for incubation with human plasma” value is 0. Moreover, in test [3], the “Result for incubation with human IgG-Fc” value came out at 0.

With “04V: cellulose-bound 13-mer variant DCAVHLGELVWCT-(βA)(βA) (disulfide 2-12 (inferred); not fully specified (N-terminus, C-terminus); printed as DCAVHLGELVWCT-(βA)(βA); also: cellulose-bound)”, the “Result for incubation with serum albumin” value in test [1] was 0. In test [2], the “Result for incubation with human plasma” value is given as “+”. In test [3], the “Result for incubation with human IgG-Fc” value was “+”.

Turning to “01T: cellulose-bound 13-mer variant TCAWHLGELVWCT-(βA)(βA) (TCAWHLGELVWCT-{βAla-βAla-cellulose}; disulfide 2-12 (inferred); reading uncertain; also: printed as TCAWHLGELVWCT-(βA)(βA))”, in test [1], the “Result for incubation with serum albumin” value is listed as 0. Besides, the “Result for incubation with human plasma” value in test [2] is reported as 0. The “Result for incubation with human IgG-Fc” value in test [3] was 0.

“03L: cellulose-bound 13-mer variant DCLWHLGELVWCT-(βA)(βA) (DCLWHLGELVWCT-{βAla-βAla-cellulose}; disulfide 2-12 (inferred); reading uncertain; also: printed as DCLWHLGELVWCT-(βA)(βA))”: the “Result for incubation with serum albumin” value in test [1] was found to be 0. Also, the “Result for incubation with human plasma” value in test [2] was determined as 0. Also, the “Result for incubation with human IgG-Fc” value in test [3] is recorded as 0.
